Entries after “also recorded” stand apart in the source; their conditions may differ. Where two headings read alike, the source gives them in different places.
Legend:
[1] = rcm bond, Hoveyda-Grubbs 2nd generation catalyst, toluene, 110.0 °C, 5.33 h
HCT-116 cells = assay: Cell viability assay for 1 and 1a-1c in HCT-116 cells (CellTiter Aqueous One, GI50); format: cell-based, human; settings: 0 to 1000 nM, 72 h, result in words, compared to 1
Description: Cell culture. The HCT-116 cell line was cultured in McCoy's 5a (Life Technologies) supplemented with 10% fetal bovine serum (FBS), 2 mM L-glutamine, and 100 U mL^−1 of penicillin and 100 μg mL^−1 of streptomycin at 37° C. in an atmosphere of 5% CO2. Both the HeLa and Caov3 cell lines were maintained in DMEM (Life Technologies) supplemented with 10% FBS, 2 mM L-glutamine, and 100 U mL^−1 of penicillin and 100 μg mL^−1 of streptomycin at 37° C. in an atmosphere of 5% CO2.
Cell Viability Assays for 1a-1c. HCT-116 cells were cultured in McCoy's 5a (Life Technologies) supplemented with 10% fetal bovine serum (FBS), 2 mM L-glutamine, 100 U mL^−1 penicillin and 100 μg mL^−1 streptomycin at 37° C. in an atmosphere of 5% CO2. HCT-116 cells were plated at […] cells/well in McCoy's 5a containing 10% FBS. Cells were cultured for 24 h, pretreated with 1 or 1a-1c in DMSO ranging from 0 to 1000 nM for 72 h (cell media contained <0.5% DMSO), and then washed with PBS (2×100 μL). 100 μL of PBS was added to each well, followed by 20 μL of CellTiter Aqueous One Solution (Promega). After 2 h at 37° C., absorbance readings were taken at 490 nm (test wavelength) and 690 nm (reference wavelength). GI50 values were calculated in Prism (GraphPad) using at least three biological replicates.

[2] = estimated, reference (6); cited from earlier work
[3] = Storage stability of synthetic fragments and intermediates; settings: for stability at ambient conditions: storage

## COc1ccc(C2O[C@H]3/C=C/[C@H](C)[C@@H](/C(C)=C/I)OC(=O)C[C@H](O[Si](C)(C)C(C)(C)C)CC[C@@]3(C)O2)cc1 (stereo partly drawn)
[1]; from C=C[C@@H]1OC(c2ccc(OC)cc2)O[C@]1(C)CC[C@H](CC(=O)O[C@H](/C(C)=C/I)[C@@H](C)C=C)O[Si](C)(C)C(C)(C)C, 5.37 mM
  ring closure, yield of all isomers: 50%
[1]; from C=C[C@@H]1OC(c2ccc(OC)cc2)O[C@]1(C)CC[C@H](CC(=O)O[C@H](/C(C)=C/I)[C@@H](C)C=C)O[Si](C)(C)C(C)(C)C
  ring closure, yield of all isomers: 51%

## COc1ccc(C2O[C@H]3C=C[C@H](C)[C@@H](/C(C)=C/I)O[13C](=O)C[C@H](O[Si](C)(C)C(C)(C)C)CC[C@@]3(C)O2)cc1 (stereo partly drawn)
[1]; from C=C[C@@H]1OC(c2ccc(OC)cc2)O[C@]1(C)CC[C@H](C[13C](=O)O[C@H](/C(C)=C/I)[C@@H](C)C=C)O[Si](C)(C)C(C)(C)C, 6.52 mM
  ring closure, yield of all isomers: 50%

## CC[C@H](OC)[C@@H](C)[C@H]1O[C@@H]1[C@@H](O)[C@H](C)/C=C/C=C(\C)[C@H]1OC(=O)C[C@@H](O)CC[C@@](C)(O)[C@@H](OC(C)=O)/C=C/[C@@H]1C [1a, 3S,17S-FD-895]
HCT-116 cells
  activity (GI50 screening) in human colorectal tumor HCT-116 cells: compromised activity

## CC[C@H](OC)[C@@H](C)[C@H]1O[C@@H]1[C@@H](O)[C@H](C)/C=C/C=C(\C)[C@H]1OC(=O)C[C@H](O)CC[C@@](C)(O)[C@H](OC(C)=O)/C=C/[C@@H]1C [1b, 7R,17S-FD-895]
HCT-116 cells
  activity (GI50 screening) in human colorectal tumor HCT-116 cells: compromised activity; also recorded: lack in activity

## CC[C@H](OC)[C@@H](C)[C@H]1O[C@@H]1[C@@H](O)[C@H](C)/C=C/C=C(\C)[C@H]1OC(=O)C[C@H](O)CC[C@@](C)(O)[C@@H](OC(C)=O)/C=C/[C@@H]1C [compound 1, 17S-FD-895]
[2]
  human maximum tolerated dose (MTD): ~4 mg/m^2

## CC(=O)O[C@H]1/C=C/[C@H](C)[C@@H](/C(C)=C/I)OC(=O)C[C@H](O)CC[C@@]1(C)O [compound 2, (2S,3S,6S,7R,10R,E)-7,10-dihydroxy-2-((E)-1-iodoprop-1-en-2-yl)-3,7-dimethyl-12-oxooxacyclododec-4-en-6-yl acetate]
[3]
  stability at ambient conditions: stable over six months at ambient conditions

## CC[C@H](OC)[C@@H](C)/C=C/CO [compound 13, (4S,5S,E)-5-Methoxy-4-methylhept-2-en-1-ol]
[3]; stored at 4° C.
  storage stability at 4° C.: over 2 years

## C#C[C@@H](C)[C@H](O)[C@H]1O[C@@H]1[C@H](C)[C@H](CC)OC [compound 15, (1S,2R)-1-((2R,3R)-3-((2R,3S)-3-methoxypentan-2-yl)oxiran-2-yl)-2-methylbut-3-yn-1-ol]
[3]
  stability at ambient conditions: stable over six months at ambient conditions

From US12623988B2, “Scaleable preparation of polyketides” (The Regents of the University of California, priority 2019, dated 2026)
